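Following 48 hours of exposure in 96-well plates, responses at five concentrations were used to interpolate endpoints linearly. Abbreviation: GI50, concentration required for 50% inhibition of growth.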 Active and inactive are the calls of the source. No stated cut-off is given here; in the data, active = GI50 up to about 1.1 µM and inactive = higher.
What was measured:
Experiment in all cases: NCI-60 cell line screen, 48 h
XF498 = test system: XF498
SNB-78 = test system: SNB-78
DMS-273 = test system: DMS-273
LXFL 529 = test system: LXFL 529
RXF 631 = test system: RXF 631
KM-20L2 = test system: KM-20L2
HOP-18 = test system: HOP-18
DMS-114 = test system: DMS-114
DLD-1 = test system: DLD-1

| SMILES | GI50 (XF498) | GI50 (SNB-78) | GI50 (DMS-273) | GI50 (LXFL 529) | GI50 (RXF 631) | GI50 (KM-20L2) | GI50 (HOP-18) | GI50 (DMS-114) | GI50 (DLD-1) |
| --- | --- | --- | --- | --- | --- | --- | --- | --- | --- |
| COC(=O)/C(=N\NC(=S)NN)C(C(=O)C(=O)Nc1ccccc1C(N)=O)c1nc2ccccc2nc1O (configuration not stated) | > 100 µM (inactive) | > 100 µM (inactive) | > 100 µM (inactive) | > 100 µM (inactive) | > 100 µM (inactive) | > 100 µM (inactive) | > 100 µM (inactive) | > 100 µM (inactive) | – |
| CN(C)C(=S)/N=c1\ssc(=S)n1-c1ccccc1 | 14.7 µM (inactive) | 19.4 µM (inactive) | 20.9 µM (inactive) | 12.4 µM (inactive) | – | 16.6 µM (inactive) | > 100 µM (inactive) | 15.9 µM (inactive) | 13.8 µM (inactive) |
| Cc1[nH]c2ccccc2c1C1=NO/C(=N\O)C(c2c(C)[nH]c3ccccc23)C1 (configuration not stated) | 53 µM (inactive) | 35.4 µM (inactive) | 35.9 µM (inactive) | 35.6 µM (inactive) | 31 µM (inactive) | 23.8 µM (inactive) | 32.4 µM (inactive) | 36.8 µM (inactive) | 42.3 µM (inactive) |
| Cc1cccc(C)c1NC(=O)CCc1n[nH]c(=S)o1 | – | > 100 µM (inactive) | 44.7 µM (inactive) | > 100 µM (inactive) | – | > 100 µM (inactive) | > 100 µM (inactive) | 39.1 µM (inactive) | 67.9 µM (inactive) |
| C=C[C@@]12CCCCC1C/C(=C(/O)OC)C(=O)C2 (some centres not stated) | > 100 µM (inactive) | > 100 µM (inactive) | > 100 µM (inactive) | > 100 µM (inactive) | > 100 µM (inactive) | > 100 µM (inactive) | > 100 µM (inactive) | > 100 µM (inactive) | > 100 µM (inactive) |
| O=C(O)C1(c2ccccc2)CCCNCC1 (configuration not stated) | – | > 100 µM (inactive) | > 100 µM (inactive) | > 100 µM (inactive) | > 100 µM (inactive) | > 100 µM (inactive) | > 100 µM (inactive) | > 100 µM (inactive) | > 100 µM (inactive) |
| COc1ccc(C(=O)C(C(=O)C(=O)Nc2ccc(Cl)c(Cl)c2)c2ccc(OC)cc2)cc1 (configuration not stated) | > 100 µM (inactive) | > 100 µM (inactive) | > 100 µM (inactive) | > 100 µM (inactive) | – | > 100 µM (inactive) | > 100 µM (inactive) | 76.9 µM (inactive) | > 100 µM (inactive) |
| COc1cc(C2(C)SCCCS2)c(I)c(OC)c1OC | > 100 µM (inactive) | > 100 µM (inactive) | > 100 µM (inactive) | > 100 µM (inactive) | > 100 µM (inactive) | > 100 µM (inactive) | > 100 µM (inactive) | > 100 µM (inactive) | > 100 µM (inactive) |
| OCn1nc2c(C3OCCO3)cc3ccccc3n2c1=S | > 100 µM (inactive) | > 100 µM (inactive) | > 100 µM (inactive) | > 100 µM (inactive) | > 100 µM (inactive) | > 100 µM (inactive) | > 100 µM (inactive) | > 100 µM (inactive) | > 100 µM (inactive) |
| O=C(Cc1nc2ccccc2s1)C(=O)Nc1ccc(Cl)cc1Cl | > 100 µM (inactive) | > 100 µM (inactive) | > 100 µM (inactive) | > 100 µM (inactive) | > 100 µM (inactive) | > 100 µM (inactive) | – | – | > 100 µM (inactive) |
| CNC(=O)c1cccc2c(Nc3ccc(NS(C)(=O)=O)cc3OC)c3cccc(C)c3nc12 | 0.196 µM (active) | – | 0.0219 µM (active) | 1.91 µM (inactive) | – | 0.409 µM (active) | 0.571 µM (active) | 0.0322 µM (active) | – |
| O=C1CCN2C(=Nc3cccc4cccc2c34)N1 | > 100 µM (inactive) | > 100 µM (inactive) | > 100 µM (inactive) | > 100 µM (inactive) | – | > 100 µM (inactive) | – | > 100 µM (inactive) | – |
| CCOc1cc2cnc3c4cc(OC)c(OC)cc4ccc3c2cc1OC | – | > 100 µM (inactive) | – | 9.02 µM (inactive) | – | > 100 µM (inactive) | 16.9 µM (inactive) | 7.1 µM (inactive) | > 100 µM (inactive) |
| COc1ccc(N2C(=O)/C(=C/c3ccc(N(CCC#N)CCC#N)cc3C)N=C2/C=C\c2ccccc2)cc1 | – | > 100 µM (inactive) | – | 8.43 µM (inactive) | > 100 µM (inactive) | 4.73 µM (inactive) | > 100 µM (inactive) | 23.9 µM (inactive) | > 100 µM (inactive) |

Source: ChEMBL document CHEMBL1201862, “PubChem BioAssay data set” (2004)
